Assay results taken from PubChem BioAssay AID1845208 (Molecular Pharmacology Branch, DTP, NCI, 2023).
Where “and” joins values, the source holds several entries; their conditions need not be identical. Equal entries are not always repeated.

Tested on: NCI-H196 SCLC complex tumor spheroid viability
Test: Anticancer human tumor NCI-H196 cell line growth inhibition;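 note: spheroids exposed to compounds for 7 days before readout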;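 for viability, T/C: 100% = DMSO vehicle control wells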
Settings: for viability, T/C: stronger effect = lower value; active = viability on the fitted dose curve at most 10% of control; inactive = the rest
How it was run: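 Single agents and combinations were tested on spheroids built from tumor cells plus HUVEC and hMSC, at half-log dilutions starting at or near clinical Cmax, else 10 microM; final DMSO 0.25% (v/v).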

[1] = curve of first compound, second compound 0.003 µM
[2] = curve of first compound, second compound 0.00949 µM
[3] = curve of first compound, second compound 0.03 µM
[4] = curve of first compound, second compound 0.0949 µM
[5] = curve of first compound, second compound 0.3 µM

[2H]c1nc(C)nc([2H])c1-c1cc(NC[C@@H](C)c2cccc3c(C(=O)NC)ccnc23)ncn1 + CC[C@@]1(O)C(=O)OCc2c1cc1n(c2=O)Cc2cc3c(CN(C)C)c(O)ccc3nc2-1
inactive: viability, T/C (second compound 0.003 µM, first compound 0.0316 µM) 103% | viability, T/C (second compound 0.003 µM, first compound 0.1 µM) 104% | viability, T/C (second compound 0.003 µM, first compound 0.316 µM) 92.5% | viability, T/C (second compound 0.003 µM, first compound 1 µM) 97.2% | viability, T/C (second compound 0.003 µM, first compound 3.16 µM) 106% | viability, T/C (second compound 0.003 µM, first compound 10 µM) 100% | viability, T/C (second compound 0.00949 µM, first compound 0.0316 µM) 100% | viability, T/C (second compound 0.00949 µM, first compound 0.1 µM) 96.5% | viability, T/C (second compound 0.00949 µM, first compound 0.316 µM) 91.8% | viability, T/C (second compound 0.00949 µM, first compound 1 µM) 95.5% | viability, T/C (second compound 0.00949 µM, first compound 3.16 µM) 99.7% | viability, T/C (second compound 0.00949 µM, first compound 10 µM) 100% | viability, T/C (second compound 0.03 µM, first compound 0.0316 µM) 96.8% | viability, T/C (second compound 0.03 µM, first compound 0.1 µM) 102% | viability, T/C (second compound 0.03 µM, first compound 0.316 µM) 95.4% | viability, T/C (second compound 0.03 µM, first compound 1 µM) 93.4% | viability, T/C (second compound 0.03 µM, first compound 3.16 µM) 95.5% | viability, T/C (second compound 0.03 µM, first compound 10 µM) 94.6% | viability, T/C (second compound 0.0949 µM, first compound 0.0316 µM) 99.4% | viability, T/C (second compound 0.0949 µM, first compound 0.1 µM) 102% | viability, T/C (second compound 0.0949 µM, first compound 0.316 µM) 107% | viability, T/C (second compound 0.0949 µM, first compound 1 µM) 102% | viability, T/C (second compound 0.0949 µM, first compound 3.16 µM) 100% | viability, T/C (second compound 0.0949 µM, first compound 10 µM) 102% | viability, T/C (second compound 0.3 µM, first compound 0.0316 µM) 109% | viability, T/C (second compound 0.3 µM, first compound 0.1 µM) 103% | viability, T/C (second compound 0.3 µM, first compound 0.316 µM) 94.8% | viability, T/C (second compound 0.3 µM, first compound 1 µM) 105% | viability, T/C (second compound 0.3 µM, first compound 3.16 µM) 104% | viability, T/C (second compound 0.3 µM, first compound 10 µM) 100%
> 10 µM: IC50 [1] | IC50 [2] | IC50 [3] | IC50 [4] | IC50 [5]

COc1cc2c(cc1O)CCNC21CSC2c3c(OC(C)=O)c(C)c4c(c3C(COC1=O)N1C(O)C3Cc5cc(C)c(OC)c(O)c5C(C21)N3C)OCO4 (stereo not drawn)
7.79% [middle of 10 runs]: viability, T/C (compound 0.003 µM)
1.62 nM [middle of 8 runs]: IC50 (compound alone, run of 12/16/2019)
inactive: viability, T/C (compound 30 pM) 103% [middle of 10 runs] | viability, T/C (compound 94.9 pM) 105% [middle of 10 runs] | viability, T/C (compound 0.0003 µM) 103% [middle of 10 runs] | viability, T/C (compound 0.000949 µM) 84.7% [middle of 10 runs]

Cc1sc2c(c1C)C(c1ccc(Cl)cc1)=NC(CC(=O)Nc1ccc(O)cc1)c1nnc(C)n1-2 (stereo not drawn)
0.763 µM and 0.77 µM and 0.666 µM: IC50 (curve of compound)
inactive: viability, T/C (compound 0.00949 µM) 102% and 106% and 98% | viability, T/C (compound 0.03 µM) 101% and 108% and 93.3% | viability, T/C (compound 0.0949 µM) 91.3% and 94.5% and 91.4% | viability, T/C (compound 0.3 µM) 85.1% and 78% and 76.3% | viability, T/C (compound 0.949 µM) 41.5% and 43.1% and 38.3% | viability, T/C (compound 3 µM) 23% and 23.8% and 20.7%

CNCc1ccc(-c2cc(-c3nc(-c4ccc(S(=O)(=O)C(C)C)cc4)cnc3N)on2)cc1 + CC[C@@]1(O)C(=O)OCc2c1cc1n(c2=O)Cc2cc3c(CN(C)C)c(O)ccc3nc2-1
inactive: viability, T/C (second compound 0.003 µM, first compound 0.00949 µM) 101% | viability, T/C (second compound 0.003 µM, first compound 0.03 µM) 102% | viability, T/C (second compound 0.003 µM, first compound 0.0949 µM) 101% | viability, T/C (second compound 0.003 µM, first compound 0.3 µM) 94.3% | viability, T/C (second compound 0.003 µM, first compound 0.949 µM) 86.2% | viability, T/C (second compound 0.003 µM, first compound 3 µM) 76.1% | viability, T/C (second compound 0.00949 µM, first compound 0.00949 µM) 98.5% | viability, T/C (second compound 0.00949 µM, first compound 0.03 µM) 99% | viability, T/C (second compound 0.00949 µM, first compound 0.0949 µM) 112% | viability, T/C (second compound 0.00949 µM, first compound 0.3 µM) 95.7% | viability, T/C (second compound 0.00949 µM, first compound 0.949 µM) 84.1% | viability, T/C (second compound 0.00949 µM, first compound 3 µM) 78.7% | viability, T/C (second compound 0.03 µM, first compound 0.00949 µM) 101% | viability, T/C (second compound 0.03 µM, first compound 0.03 µM) 101% | viability, T/C (second compound 0.03 µM, first compound 0.0949 µM) 101% | viability, T/C (second compound 0.03 µM, first compound 0.3 µM) 93.2% | viability, T/C (second compound 0.03 µM, first compound 0.949 µM) 76.9% | viability, T/C (second compound 0.03 µM, first compound 3 µM) 81.6% | viability, T/C (second compound 0.0949 µM, first compound 0.00949 µM) 99.9% | viability, T/C (second compound 0.0949 µM, first compound 0.03 µM) 104% | viability, T/C (second compound 0.0949 µM, first compound 0.0949 µM) 121% | viability, T/C (second compound 0.0949 µM, first compound 0.3 µM) 88.7% | viability, T/C (second compound 0.0949 µM, first compound 0.949 µM) 89.3% | viability, T/C (second compound 0.0949 µM, first compound 3 µM) 75.1% | viability, T/C (second compound 0.3 µM, first compound 0.00949 µM) 94.9% | viability, T/C (second compound 0.3 µM, first compound 0.03 µM) 93.7% | viability, T/C (second compound 0.3 µM, first compound 0.0949 µM) 92.7% | viability, T/C (second compound 0.3 µM, first compound 0.3 µM) 75% | viability, T/C (second compound 0.3 µM, first compound 0.949 µM) 65% | viability, T/C (second compound 0.3 µM, first compound 3 µM) 57.1%
> 3 µM: IC50 [1] | IC50 [2] | IC50 [3] | IC50 [4] | IC50 [5]
